In BigSolDB 2.1:

CC(=O)Nc1ccc(O)cc1
solubility (mole fraction)
Details	293.2 K	298.2 K	303.2 K	308.2 K	313.2 K
in acetonitrile	0.00682	0.00805	0.00935	0.0107	0.0118
in water	0.00164	0.00202	0.00229	0.00284	0.00313
